From PubChem BioAssay (NCI)
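Cultured in 96-well plates, cells were exposed to test compound for 48 hours across five concentrations. The concentration for 50% growth inhibition is given as GI50. TGI is the concentration that stops growth completely.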

Tests used:
Assay in all cases: NCI-60 cell line screen, 48 h
PC-3 prostate = tested on: PC-3 prostate
MOLT-4 leukemia = tested on: MOLT-4 leukemia
COLO 205 colon = tested on: COLO 205 colon
IGROV1 ovarian = tested on: IGROV1 ovarian
NCI/ADR-RES ovarian = tested on: NCI/ADR-RES ovarian
T-47D breast = tested on: T-47D breast
EKVX NSCLC = tested on: EKVX NSCLC
SNB-19 CNS = tested on: SNB-19 CNS

Row | Compound | TGI (PC-3 prostate) | TGI (MOLT-4 leukemia) | TGI (COLO 205 colon) | TGI (IGROV1 ovarian) | TGI (NCI/ADR-RES ovarian) | TGI (T-47D breast) | TGI (EKVX NSCLC) | TGI (SNB-19 CNS) | GI50 (PC-3 prostate) | GI50 (MOLT-4 leukemia) | GI50 (COLO 205 colon) | GI50 (IGROV1 ovarian) | GI50 (NCI/ADR-RES ovarian) | GI50 (T-47D breast) | GI50 (EKVX NSCLC) | GI50 (SNB-19 CNS)
1 | CCc1ccccc1NNc1cc(=O)[nH]c(=O)[nH]1 | 32.8 µM | 85.7 µM | 34.5 µM | 37.8 µM | > 100 µM | 37.7 µM | 33.9 µM | 43.5 µM | – | – | – | – | – | – | – | –
2 | C=CCOCn1cc(C)c(=O)[nH]c1=O | > 100 µM | > 100 µM | > 100 µM | > 100 µM | – | > 100 µM | > 100 µM | > 100 µM | – | – | – | – | – | – | – | –
3 | O=C(OCC(Cl)(Cl)Cl)O[C@@H]1CCCC1(c1ccccc1)c1ccccc1 | > 100 µM | 34.1 µM | > 100 µM | > 100 µM | > 100 µM | > 100 µM | > 100 µM | > 100 µM | – | – | – | – | – | – | – | –
4 | O=C(NNc1nc(-c2ccccc2)cs1)C(F)(F)F | > 100 µM | > 100 µM | > 100 µM | > 100 µM | > 100 µM | > 100 µM | > 100 µM | > 100 µM | – | – | – | – | – | – | – | –
5 | COc1cc2nc(-c3cccs3)[nH]c(=O)c2cc1OC | > 100 µM | – | > 100 µM | > 100 µM | > 100 µM | > 100 µM | > 100 µM | > 100 µM | – | – | – | – | – | – | – | –
6 | Cc1ccc(NC(=O)C(=O)CC(=O)c2sc(Nc3c(C)cccc3C)nc2C)cc1C | > 100 µM | > 100 µM | > 100 µM | > 100 µM | > 100 µM | > 100 µM | > 100 µM | > 100 µM | – | – | – | – | – | – | – | –
7 | N#C/C(=C/NC(=S)c1ccncc1)C(N)=O | – | > 100 µM | > 100 µM | > 100 µM | > 100 µM | > 100 µM | > 100 µM | > 100 µM | – | – | – | – | – | – | – | –
8 | COc1ccc(C(C2=C(O)COC2=O)c2cc3c(cc2O)OCO3)cc1OC (stereo not drawn) | > 100 µM | > 100 µM | > 100 µM | > 100 µM | > 100 µM | – | > 100 µM | > 100 µM | – | – | – | – | – | – | – | –
9 | S=C(Nc1ccc2cn[nH]c2c1)Nc1ccc2cn[nH]c2c1 | > 100 µM | – | > 100 µM | > 100 µM | > 100 µM | > 100 µM | > 100 µM | > 100 µM | – | – | – | – | – | – | – | –
10 | CC(C)(C)OC(=O)NCCCCC(NC(=O)c1ccccc1)C(N)=O (stereo not drawn) | > 100 µM | > 100 µM | > 100 µM | – | > 100 µM | > 100 µM | > 100 µM | > 100 µM | – | – | – | – | – | – | – | –
11 | CC(C)(C)N(Cc1ccc2c(c1)OCO2)C(=O)/C=C\Sc1ccccc1 | > 100 µM | > 100 µM | > 100 µM | > 100 µM | > 100 µM | > 100 µM | > 100 µM | > 100 µM | – | – | – | – | – | – | – | –
12 | CCOC(=O)C1=C(C)N(c2ccc(OC)cc2)C2(O)C=CC(=O)C3=C(O)c4ccccc4C(=O)C312 (stereo not drawn) | 24.4 µM | 20.5 µM | 24 µM | 15.6 µM | 20.1 µM | 32.7 µM | 23.4 µM | 41.1 µM | – | – | – | – | – | – | – | –
13 | C[Si](C)(c1ccccc1)[C@H]1CCCC=C1CCNC1c2ccccc2CCc2ccccc21 | > 100 µM | > 100 µM | > 100 µM | > 100 µM | > 100 µM | > 100 µM | > 100 µM | > 100 µM | – | – | – | – | – | – | – | –
14 | O=C(CCc1ccccc1)ON1C(=S)C(c2ccccc2)(c2ccccc2)N=C1Sc1ccccc1 | > 100 µM | 28.6 µM | > 100 µM | 55.5 µM | > 100 µM | > 100 µM | > 100 µM | > 100 µM | – | – | – | – | – | – | – | –
15 | COc1cc(-c2ccccc2N)c2cccnc2c1OC | 22 µM | 7.94 µM | 22.1 µM | 11.1 µM | 35.9 µM | 13.7 µM | 13.8 µM | 18.6 µM | – | – | – | – | – | – | – | –
16 | C[C@@H]1S[C@H](c2c(Cl)cccc2Cl)N2Cc3ccccc3N=C12 | > 100 µM | > 100 µM | > 100 µM | > 100 µM | – | > 100 µM | > 100 µM | > 100 µM | – | – | – | – | – | – | – | –
17 | CCN(CC)c1ccc(/C=C/C=C2C(=O)NC(=S)NC2=O)cc1 | > 100 µM | > 100 µM | > 100 µM | > 100 µM | 41.8 µM | > 100 µM | > 100 µM | > 100 µM | – | – | – | – | – | – | – | –
18 | CN(C)c1cccc(NC2=NCCO2)c1 | > 100 µM | > 100 µM | 41.3 µM | > 100 µM | > 100 µM | > 100 µM | > 100 µM | > 100 µM | – | – | – | – | – | – | – | –
19 | CCN(CC)c1ccc2cc(C(=O)Nc3ccccn3)c(=N)oc2c1 | – | > 100 µM | > 100 µM | > 100 µM | > 100 µM | > 100 µM | > 100 µM | 76.2 µM | – | – | – | – | – | – | – | –
20 | COc1ccc(/C=C/C2=NN(c3cccc(S(=O)(=O)O)c3)C3(C2)SCC(=O)N3c2nc3ccccc3s2)cc1 (stereo not drawn) | > 100 µM | > 100 µM | > 100 µM | > 100 µM | > 100 µM | 87.1 µM | > 100 µM | > 100 µM | – | – | – | – | – | – | – | –
21 | Oc1[nH]c2ccccc2c1/C=c1/cc2c(c(-c3ccc(F)cc3)n1)=Nc1ccccc1-2 | 1.88 µM | 5.41 µM | 1.27 µM | 1.93 µM | 1.25 µM | 2.13 µM | 72.7 µM | 32.6 µM | 0.317 µM | 2.17 µM | 0.316 µM | 0.554 µM | 0.267 µM | 0.501 µM | 3.01 µM | 1.43 µM
22 | Cc1ccccc1NC(=O)Cc1csc2[n+]1C(=O)/C(=C/c1ccc([N+](=O)[O-])cc1)S2 | > 100 µM | > 100 µM | > 100 µM | > 100 µM | > 100 µM | > 100 µM | > 100 µM | > 100 µM | – | – | – | – | – | – | – | –
23 | Cc1nc2ccccc2c(/C=C/c2ccc(Cl)cc2)c1C(=O)/C=C/c1ccc(Cl)cc1 | – | > 100 µM | – | – | 6.15 µM | – | – | 2.94 µM | – | 0.788 µM | – | – | 2.12 µM | – | – | 1.57 µM
24 | COc1cc(N(Cc2ccc3oc(=O)c(-c4ccccc4)nc3c2)Cc2ccc3oc(=O)c(-c4ccccc4)nc3c2)cc(OC)c1OC | > 10 µM | > 10 µM | > 10 µM | > 10 µM | > 10 µM | > 10 µM | > 10 µM | > 10 µM | – | – | – | – | – | – | – | –
25 | C[Si](C)(C)C1=C([Si](C)(C)C)C(Cl)(Cl)C1=O | 12.9 µM | 3.45 µM | 4.87 µM | 16.1 µM | 27.1 µM | 6.35 µM | 16.2 µM | 36.5 µM | – | – | – | – | – | – | – | –
